In patent publication US10955421B2, “Detection of membrane proteins” (Oxford University Innovation Limited, priority 2017, dated 2021):

Experiments:
[1] = test system: human P2Y1 purinergic receptor (P2Y1R); assay: Native mass spectrometry of P2Y1R ligand binding in Fos-Choline-16
Method: P2Y1R and P2Y1R-MRS2500 complex were prepared as described in Zhang et al., Nature, 2015, 520, 317.
(§1) Purified GPCRs were buffer exchanged into 50-200 mM ammonium acetate containing Fos-Choline detergents at 2 times critical micelle concentration (CMC) by using Bio-Spin size exclusion spin column (Bio-rad) prior to mass spectrometer analysis. Detergent exchange could be also performed by size exclusion chromatography equipped with FPLC system. Protein samples were fractionized by the size exclusion columns equilibrated with 50-200 mM ammonium acetate containing Fos-choline detergents at 2 times CMC, and the protein fractions were collected and concentrated by centrifugation-based protein concentrators Vivaspin.
The measurement of GPCRs was performed on a modified Synapt G1 (Waters) or a modified Q-Exactive (Thermo) mass spectrometer. The data in Examples 2 and 4 were obtained using a Q-Exactive mass spectrometer, whereas the data in Example 3 were obtained using a Synapt G1 mass spectrometer.
The Q-Exactive mass spectrometer was set up according to Gault et al. (Nat. Methods 13, 333-336, 2016). Briefly, a gentle voltage gradient was applied (injection flatapole, inter flatapole, bent flatapole, transfer multipole: 7.9, 6.94, 5.9, 4 V respectively). The acceleration voltage applied in HCD cell was optimized for GPCRs (60-150 V) to remove the detergent micelles from protein ions. Spectra were acquired with ten microscans and the noise level parameter of 3 was applied. Backing pressure was maintained at 1.05-1.3×10^−9 mBar to allow better transmission of GPCR ions.
High-resolution MS was used to probe the drug/ligand interactions of human P2Y1R purified from insect cells. By controlled application of collisional activation, intact P2Y1R was liberated from its detergent micelle, preserving the non-covalent interactions formed in solution. The phosphate-containing detergent of Example 1 (Fos-16) was used in these experiments.

NTR1 [2] = biological target: T1, NTR1 (Rattus norvegicus, UniProt P20789); assay: Detergent screening by western blotting (receptor aggregation); details: NTR1 solubilised from HEK293T cells in 1% detergent; compared with the other detergents tested (FIGS. 1A and B)
T1 sequence (P20789 whole entry, the tested form may be a part): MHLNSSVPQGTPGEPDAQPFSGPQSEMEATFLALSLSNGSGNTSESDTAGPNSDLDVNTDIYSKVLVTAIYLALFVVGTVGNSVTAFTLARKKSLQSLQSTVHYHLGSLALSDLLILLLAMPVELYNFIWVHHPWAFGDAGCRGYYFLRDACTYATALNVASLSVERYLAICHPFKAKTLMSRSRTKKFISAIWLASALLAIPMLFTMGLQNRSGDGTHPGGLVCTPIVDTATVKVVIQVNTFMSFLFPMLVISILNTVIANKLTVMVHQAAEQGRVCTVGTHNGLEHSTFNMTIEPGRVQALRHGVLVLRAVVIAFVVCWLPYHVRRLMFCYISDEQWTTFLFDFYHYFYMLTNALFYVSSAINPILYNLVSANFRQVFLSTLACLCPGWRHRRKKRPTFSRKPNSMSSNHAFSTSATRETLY
Method: (§2) The gene fragment of rat NTR1 (wild-type, 1-424) with exogenous c-terminal Flag- and His-tag was constructed into modified pHLsec vector for transient protein overexpression. Plasmids were transfected into HEK293T cells via a liposome-based method with Lipofectamine 2000 transfection reagent and the cells were harvested 24 hrs after transfection for further experiments.
HEK293T cells with NTR1 overexpression were lysed in lysis buffer (100 mM sodium phosphate, pH 7.2, 150 mM NaCl, 10% glycerol, 1× EDTA-free protease inhibitor cocktail from Roche) containing 1% various detergents for screening. Cell lysate was harvested after pelleting down the debris by centrifugation, and protein concentration was measured by Pierce 660 nm protein assay reagent (Pierce). Equal amounts of protein extract in different detergents were applied for western blotting to detect NTR1 by using an anti-His tag antibody. Semi-quantification was performed by Gel-pro software to quantify the protein amount and relative ratio of protein aggregation.
Various detergents were assessed for their ability to preserve the conformation and activity of NTR1. […]

NTR1 [3] = biological target: T1, NTR1; assay: Detergent screening by neurotensin-binding assay (BODIPY-NT8-13); details: BODIPY-NT8-13 bound to NTR1 in detergent extract, room temperature, 1 hr (FIG. 1C)
Method: as §2
Protein extract from HEK293T cells with NTR1 overexpression was incubated with BODIPY-labelled neurotensin 8-13 (BODIPY-NT8-13) at room temperature for 1 hr. The unbound BODIPY-NT8-13 was removed by Bio-Spin size exclusion spin column (Bio-rad) and the fluorescent signal of BODIPY-NT8-13 bound to receptor was detected by fluorescence microplate reader.
Various detergents were assessed for their ability to preserve the conformation and activity of NTR1. The detergents assessed were: (1) n-dodecyl-β-D-maltoside (DDM); (2) n-undecyl-β-D-maltoside (UDM); (3) n-nonyl-β-D-glucopyranoside (NG); (4) n-octyl-β-D-glucopyranoside (OG); (5) octyl glucose neopentyl glycol (OGNG); (6) n-octyl-β-D-thioglucopyranoside (OTG); (7) tetraethylene glycol monooctyl ether (C8E4); (8) hexaethylene glycol monodecyl ether (C10E6); (9) polyethylene glycol tert-octylphenyl ether (Triton X-100); (10) lauryldimethylamine-N-oxide (LDAO); and (11) hexadecylphosphocholine (Fos-Choline-16).

NTR1 [4] = biological target: T1, NTR1; assay: Native mass spectrometry of PIP2 binding to NTR1 in Fos-Choline-16; details: after incubation of PIP2 and NTR1 in Fos-Choline-16 (FIG. 6A)
Method: as §1
PIP2 powder (Avanti) was dissolved into solvent containing chloroform, methanol and H2O with volume ratio of 20:9:1. The aliquoted PIP2 solution was dried out by gas-assisted evaporation and re-suspended into 50-200 mM ammonium acetate containing 0.00106% Fos-Choline-16, followed by sonication in water bath for 30 mins.
The measurement of GPCRs was performed on a modified Synapt G1 (Waters) or a modified Q-Exactive (Thermo) mass spectrometer. The data in Examples 2 and 4 were obtained using a Q-Exactive mass spectrometer, whereas the data in Example 3 were obtained using a Synapt G1 mass spectrometer. […]

[5] = 1:0.5 molar ratio of protein to ATP (FIG. 3B)
[6] = endogenous nucleotide, purified P2Y1R, UniDec deconvolution (FIG. 2A)

CNc1nc(I)nc2c1ncn2[C@H]1C[C@H](OP(=O)(O)O)[C@]2(COP(=O)(O)O)C[C@H]12 [MRS2500, (1′R2′S,4′S,5′S)-4-(2-iodo-6-methylamino-purine-9-yl)-1-[(phosphato)methyl] 2(phosphato)bicycle[3.1.0]-hexane]
ADP binding in the presence of the drug ([1]; P2Y1R purified in the presence of MRS2500): No ADP binding was detected | percentage of interaction with P2Y1R ([1]; P2Y1R purified in the presence of MRS2500 (FIG. 2B)): 100 percentage

Nc1ncnc2c1ncn2[C@@H]1O[C@H](COP(=O)(O)OP(=O)(O)OP(=O)(O)O)[C@@H](O)[C@H]1O [ATP, adenosine 5′-triphosphate]
ADP-bound receptor converted into the ATP bound state [1, 5]: ~30% | apo receptor converted into the ATP bound state [1, 5]: around 80% | displacement of MRS2500 from the P2Y1R-MRS2500 complex ([1]; 1:2 molar P2Y1R:ATP, 30 min incubation at 37° C. (FIG. 4)): complete displacement of MRS2500 | further decrease of ADP binding ([1]; 2 molar excess of ATP (FIG. 3C)): 40% | ATP-binding ratio of phosphorylated P2Y1R [1, 6]: 39.6% | ATP-binding ratio of receptor without phosphorylation [1, 6]: 41.5%

CCCCCCCCCCCCCCCCOP(=O)([O-])OCC[N+](C)(C)C [Fos-Choline-16, n-hexadecylphosphocholine]
receptor aggregation and oligomerisation (NTR1 [2]): less receptor aggregation and oligomerisation | ligand binding activity (NTR1 [3]): substantially preserved

PIP2
PIP2 binding of NTR1 (NTR1 [4]): Multiple binding
